Assay results published in patent US7300937B2, “Derivatives of cyano-aryl (or cyanoheteroaryl)-carbonyl-piperazinyl-pyrimidines, their preparation and application as medication” (Laboratorios del Dr. Esteve, S.A., priority 2001, dated 2007).
Structures can show the parent of a compound that is named as a salt. Marks after values point to notes of the source that are not given here.

Assays:
mouse = assay: Anaesthetic activity in mice (IV, loss of three reflexes); conditions: for time of anaesthesia: average time
Description: The anaesthetic activity was determined after intravenous (IV) administration of the product under study in three different doses (15, 10 and 5 mg/kg) in the caudal vein of the mouse. The percentage of anaesthetised animals was recorded and the average time of anaesthesia calculated. Mice were considered to be anaesthetised when losing the three reflexes: positional reflex, response to painful stimulus reflex (prick in the tail) and palpebral reflex.

mice = assay: Sedative activity in mice (behaviour observation); type: in vivo, mouse; design: unit not given here; conditions: 80 mg/kg i.p.
Description: The sedative activity was studied by observing the animals' behaviour after intraperitoneal (i.p.) administration of a dose of 80 mg/kg. This observation was conducted at different times, allowing to know the sedative effect and its duration.

dog = assay: Anaesthetic activity in dogs (IV infusion); conditions: IV infusion 5 mg/ml/minute until fully anaesthetised
Description: A saline solution of the product in study was perfused by means of a perfusion pump in a concentration and rate of 5 mg/ml/minute, through a cannula inserted in a vein of the front leg.

[1] = system: convulsions induced by IV injection of pentamethylentetrazol (cardiazol); assay: Anticonvulsive activity in mice (convulsions due to cardiazol); type: in vivo, mouse; conditions: for ED50: Mus musculus; for % Activity: mice, cardiazol 45 mg/kg IV
[2] = system: body tone and abdominal tone of the rats; assay: Myorelaxant activity in the IRWIN test in rats; type: in vivo, rat; conditions: 80 mg/kg ip
Description: The activity as muscular relaxant of the products of the invention was studied, by evaluating the effect on body tone and abdominal tone of the rats, following the method described by S. IRWIN (Gordon Res. Conf. on Medicinal Chem.,1959. p.133). The rats received the products under study in a dose of 80 mg/kg ip, and at several times after administration (½, 1, 2, 3, 4 and 5 hours) the body and abdominal tone were evaluated, comparing muscle tension to that of the control animals.

rat = assay: Anaesthetic activity in rats (IV infusion to maintain full anaesthesia for 1 hour); conditions: IV infusion required to maintain full anaesthesia for 1 hour
Description: In this test, through the cannulated caudal vein of a rat was perfused a solution of the products under study with a concentration of 10 mg/kg. The rate of perfusion was varied to keep the rats anaesthetised for 1 hour.

SMILES | % anaesthetised (mouse; 5 mg/kg iv) | % anaesthetised (mouse; 10 mg/kg iv) | time of anaesthesia (mouse; 10 mg/kg iv) | % anaesthetised (mouse; 15 mg/kg iv) | time of anaesthesia (mouse; 15 mg/kg iv) | Sedative activity (mice; 30′) | Sedative activity (mice; 1 h) | Sedative activity (mice; 2 h) | Sedative activity (mice; 3 h) | Sedative activity (mice; 4 h) | Sedative activity (mice; 5 h) | Sedative activity (mice; 24 h) | Anaesthetic dose (dog) | ED50 [1] | % Activity ([1]; 20 mg/kg i.p.) | % Activity ([1]; 40 mg/kg i.p.) | % Activity ([1]; 80 mg/kg i.p.) | % muscular relaxation ([2]; after 1 h.) | % muscular relaxation ([2]; after 2 h.) | % muscular relaxation ([2]; after 3 h.) | other results
CCOc1ccnc(N2CCN(C(=O)c3ccccc3C#N)CC2)n1 (as salt: HCl) [Example 4, 2-[4-(2-cyanobenzoyl)-1-piperazinyl]-4-ethoxypyrimidine hydrochloride] |  |  |  |  |  |  |  |  |  |  |  |  |  |  |  |  |  |  |  |  | melting point: 147 to 151 °C
CCOc1ccnc(N2CCN(C(=O)c3ccccc3C#N)CC2)n1 [Example 4, 2-[4-(2-cyanobenzoyl)-1-piperazinyl]-4-ethoxypyrimidine hydrochloride] | 0% | 100% | 2.6 ′ | 100% | 5.8 ′ | 90 | 75 | 75 | 35 | 0 | 0 | 0 | 10.1 mg/kg | 25.1 mg/kg | 40% | 69% | 87% | 100% | 100% | 70% | % muscular relaxation ([2]; after 4 h.): 33%; % muscular relaxation ([2]; after 5 h.): 0%; % muscular relaxation ([2]; after ½ h.): 100%; Total dose (rat): 56.8 mg/kg
CC(C)c1cccc(C(C)C)c1O [Propofol, reference compound] | 0% | 80% | 1 ′ | 80% | 1.3 ′ |  |  |  |  |  |  |  | 21.6* mg/kg | 32.5 mg/kg | 33% | 46% | 100% | 100% | 70% | 0% | % muscular relaxation ([2]; after 4 h.): 0%; % muscular relaxation ([2]; after 5 h.): 0%; % muscular relaxation ([2]; after ½ h.): 100%; Total dose (rat): 67 mg/kg
Cc1ccc(-c2nc3ccc(C)cn3c2CC(=O)N(C)C)cc1 [Zolpidem, reference compound] |  |  |  |  |  | 100 | 90 | 30 | 0 | 0 | 0 | 0 |  |  |  |  |  |  |  |  | 
